For assay [1], the target named is T1, ERp5 (Rattus norvegicus, UniProt Q63081).
T1 construct: gene Pdia6; endogenous, rat platelet lysate
T1 sequence (Q63081 20-440): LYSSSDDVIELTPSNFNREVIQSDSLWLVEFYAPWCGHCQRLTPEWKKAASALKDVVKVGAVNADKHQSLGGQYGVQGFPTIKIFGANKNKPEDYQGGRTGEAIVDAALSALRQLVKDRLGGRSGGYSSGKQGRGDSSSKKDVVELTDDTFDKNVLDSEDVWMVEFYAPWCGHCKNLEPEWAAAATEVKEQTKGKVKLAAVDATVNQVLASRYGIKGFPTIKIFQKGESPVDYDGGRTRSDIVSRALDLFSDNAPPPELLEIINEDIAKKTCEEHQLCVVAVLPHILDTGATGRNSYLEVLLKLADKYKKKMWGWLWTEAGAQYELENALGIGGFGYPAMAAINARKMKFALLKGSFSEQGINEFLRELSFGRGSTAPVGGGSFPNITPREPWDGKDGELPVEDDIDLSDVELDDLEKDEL
Put plainly: competition of BAA pull-down by excess untagged ADTM, immunoblot; […] inhibition of ERp5 activity at […]. Type of assay: cell-based. On the technique in general: Immunoblotting shows a protein as a band on a membrane.

Assay [2] deals with T2, ERp57 (Homo sapiens, UniProt P30101).
T2 construct: gene PDIA3; human recombinant ERp57
T2 sequence (P30101 25-505): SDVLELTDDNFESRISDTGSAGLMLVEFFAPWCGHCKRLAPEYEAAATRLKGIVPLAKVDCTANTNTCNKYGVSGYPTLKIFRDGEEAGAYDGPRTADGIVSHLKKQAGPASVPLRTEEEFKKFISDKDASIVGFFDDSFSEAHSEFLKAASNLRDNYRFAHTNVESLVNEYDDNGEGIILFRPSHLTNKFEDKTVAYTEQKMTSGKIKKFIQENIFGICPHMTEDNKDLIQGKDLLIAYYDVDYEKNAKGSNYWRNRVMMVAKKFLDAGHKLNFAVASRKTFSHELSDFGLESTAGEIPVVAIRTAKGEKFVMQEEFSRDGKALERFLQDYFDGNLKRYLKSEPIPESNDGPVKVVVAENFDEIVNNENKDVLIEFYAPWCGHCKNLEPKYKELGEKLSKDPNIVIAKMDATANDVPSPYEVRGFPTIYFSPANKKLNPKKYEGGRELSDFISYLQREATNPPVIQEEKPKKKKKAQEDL
Put plainly: insulin reduction turbidity assay with recombinant ERp57; irreversible after dilution; also competes with BAA in rat platelet lysate pull-down. Type of assay: biochemical.

The target in assay [3] is T3, ERp72 (Rattus norvegicus, UniProt P38659).
T3 construct: gene Pdia4; endogenous, rat platelet lysate
T3 sequence (P38659 21-643): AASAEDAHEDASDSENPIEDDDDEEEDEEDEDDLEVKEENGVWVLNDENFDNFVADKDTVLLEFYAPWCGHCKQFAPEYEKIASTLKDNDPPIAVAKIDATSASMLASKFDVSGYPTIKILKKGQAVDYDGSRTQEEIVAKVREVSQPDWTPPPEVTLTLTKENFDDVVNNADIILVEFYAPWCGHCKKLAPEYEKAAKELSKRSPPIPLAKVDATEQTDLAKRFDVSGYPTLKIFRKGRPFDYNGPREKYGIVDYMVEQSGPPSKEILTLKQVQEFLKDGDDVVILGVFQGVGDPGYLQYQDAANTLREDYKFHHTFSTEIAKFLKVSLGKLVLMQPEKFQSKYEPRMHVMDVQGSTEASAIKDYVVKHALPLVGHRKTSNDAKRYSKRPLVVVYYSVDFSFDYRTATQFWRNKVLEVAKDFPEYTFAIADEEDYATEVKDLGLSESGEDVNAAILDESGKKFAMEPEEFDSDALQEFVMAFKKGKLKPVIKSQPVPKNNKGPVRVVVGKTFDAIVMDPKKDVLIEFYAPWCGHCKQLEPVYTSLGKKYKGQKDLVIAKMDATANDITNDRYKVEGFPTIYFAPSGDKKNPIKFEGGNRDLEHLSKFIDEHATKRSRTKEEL
In words: competition of BAA pull-down by excess untagged ADTM, immunoblot; only […] inhibition of recombinant ERp72 at […]. Type of assay: cell-based.

The target in another assay is T4, PDI (Homo sapiens, UniProt P07237).
T4 construct: gene P4HB; recombinant PDI
T4 sequence (P07237 18-508): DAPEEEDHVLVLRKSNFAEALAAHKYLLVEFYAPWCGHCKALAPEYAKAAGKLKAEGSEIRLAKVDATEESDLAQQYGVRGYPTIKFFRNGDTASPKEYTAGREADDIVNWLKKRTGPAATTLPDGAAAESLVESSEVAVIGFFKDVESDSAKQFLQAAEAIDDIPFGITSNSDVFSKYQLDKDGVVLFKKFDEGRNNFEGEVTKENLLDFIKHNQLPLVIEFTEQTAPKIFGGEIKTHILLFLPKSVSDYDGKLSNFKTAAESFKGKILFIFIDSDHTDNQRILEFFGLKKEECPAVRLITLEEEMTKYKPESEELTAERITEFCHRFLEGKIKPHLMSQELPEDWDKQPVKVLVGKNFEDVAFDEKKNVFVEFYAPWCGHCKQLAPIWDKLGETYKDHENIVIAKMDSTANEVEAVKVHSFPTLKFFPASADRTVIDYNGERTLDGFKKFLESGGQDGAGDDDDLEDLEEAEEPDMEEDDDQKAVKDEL
Put plainly: insulin reduction turbidity assay with recombinant PDI (weak). Type of assay: biochemical.

The target of assay [4] is T3, ERp72. Put plainly: NeutrAvidin pull-down from platelet lysate, LC-MS/MS and immunoblot, competed by excess ADTM. Type of assay: cell-based.
For assay [5], the target named is T1, ERp5. The assay is described as above. Type of assay: cell-based.
Assay [6] has as its target T5, ERp57 (Rattus norvegicus, UniProt P11598).
T5 construct: gene Pdia3; endogenous, rat platelet lysate
T5 sequence (P11598 25-505): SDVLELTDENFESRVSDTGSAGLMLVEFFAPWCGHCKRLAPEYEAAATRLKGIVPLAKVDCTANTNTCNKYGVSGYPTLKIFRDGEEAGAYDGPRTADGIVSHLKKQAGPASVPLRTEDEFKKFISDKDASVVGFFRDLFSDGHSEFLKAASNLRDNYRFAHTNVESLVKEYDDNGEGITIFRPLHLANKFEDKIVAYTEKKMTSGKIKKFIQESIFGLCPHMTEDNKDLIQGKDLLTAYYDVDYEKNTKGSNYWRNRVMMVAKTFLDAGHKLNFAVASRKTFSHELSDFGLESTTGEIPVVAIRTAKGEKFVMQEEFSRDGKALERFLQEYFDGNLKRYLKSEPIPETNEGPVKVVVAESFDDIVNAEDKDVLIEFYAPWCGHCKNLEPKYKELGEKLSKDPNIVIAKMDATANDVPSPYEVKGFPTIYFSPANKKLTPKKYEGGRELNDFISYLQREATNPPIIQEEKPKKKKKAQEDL
Described as above. Type of assay: cell-based.

From PMC4650696, “Novel anti-thrombotic agent for modulation of protein disulfide isomerase family member ERp57 for prophylactic therapy” (Scientific Reports, 2015) come the findings set out here.

One may read the inhibition as how much of the control response was suppressed. By IC50 is commonly meant the concentration at which inhibition is half-maximal.

Turning to `CC(=O)Oc1ccc(C[C@@H](OC(C)=O)C(=O)OCc2nc(C)c(C)nc2C)cc1OC(C)=O` [ADTM], the inhibition at 300 µM at ERp5 [1] amounted to 38%; on ERp72 [3], 18%; at PDI, 30%. For the same molecule, the 50% inhibitory concentration (IC50) at ERp57 [2] lay in the range of 100 to 300 µM.
As to `O=C1N[C@H]2[C@H](CS[C@H]2CCCCC(=O)O[C@H](Cc2ccc(O)c(O)c2)C(=O)OCc2ccccc2)N1` [BAA], the “NeutrAvidin pull-down from platelet lysate, LC-MS/MS and immunoblot, competed by” value on ERp72 [4] is “We confirmed the identity of the pulled-down proteins as ERp72, ERp57 and ERp5 with their respective antibodies”; on ERp5 [5] it was “We confirmed the identity of the pulled-down proteins as ERp72, ERp57 and ERp5 with their respective antibodies”; on ERp57 [6] it was “specificity of the binding between BAA and these targets (ERp72, ERp57 and ERp5) could be demonstrated by the competition”.
